The record followed here is patent US20250129021A1, “SMALL MOLECULE PROTEIN SYNTHESIS MODULATORS” (Interdict Bio, Inc., priority 2023, published 2025).

What all share (format): biochemical
The test system of one assay is MCL-1. Put plainly: In vitro transcription-translation (IVTT) assay, MCL-1 reporter. Particulars: IVTT, HeLa S3 lysate, 2 hrs at 30° C.; read-out: MCL1 IC50. From the text:
(§1) All reporter constructs have been cloned into the pT7CFE1-CHis plasmid (ThermoFisher #88860) using Gibson assembly procedures (NEB #E2611L). The parental pT7CFE1-CHis plasmid contains an EMCV IRES at the 5′UTR for translation initiation, a multiple-cloning site (MCS) for gene insertion, an optional C-terminal His-epitope tag, and polyA sequence in the 3′UTR to regulate mRNA stability. All reporters are designed to be inserted at the MCS to include a red fluorescent protein (mCherry), P2A self-cleaving peptide which releases the preceding mCherry protein product, and a fusion open reading frame containing a 3×FLAG epitope, a peptide sequence of interest (TEST), and green fluorescent protein (sfGFP).
(§2) Construct Plasmid Preparation: All plasmids are isolated from MACH1 cells (ThermoFisher) grown overnight in ampicillin-containing luria broth, and purified using ZymoPure Express Plasmid Midiprep Kit (Zymo Research). Constructs are sequenced verified and diluted to a working concentration of 110 ng/μL.
(§3) HeLa S3 Lysate Preparation: HeLa S3 cell pellets are acquired from Ipracell/Ipratech (Belgium) and shipped as 4 mL frozen cell pellets on dry ice for storage at −80° C. until use. The procedure for lysate preparation is as follows. Prepare 1× Lysis Buffer, cold and stored on ice:
(§4) Each preparation takes 8 cell pellets (4 ml packed volume each, approximately 1.0×10^9 cells per pellet). Thaw cell pellets from −80° C. on ice for 90 mins. Lay pellets horizontally on top of the ice and rotate every 30 mins to ensure even thawing. Once thawed, add 4 mL of cold lysis buffer to each pellet, and using a serological pipet, gently pipet up and down to break up clumps. Incubate resuspended cells in ice for an additional 30 mins (plunged into ice). During 30 min incubation, rinse and RNase-zap (Ambion) glass dounces (use loose pestle “A”), gently dry and place on ice until needed. Prepare RNase-free Eppendorf tubes for spinning and for batch storage. Add batch labels to 1.5-1.7 mL RNase-free microcentrifuge tubes (labeling scheme below). Each batch will have an extra 1.5-1.7 mL RNase-free microcentrifuge tube for 40 μL of lysate, label the top of this tube (labeling scheme below). After 30 min incubation, transfer all 8 mL of cell pellet to dounce. Cell lysis is complete after douncing 100 times. Aliquot cell lysis into 1.5-1.7 mL temporary-microcentrifuge tubes. Place tubes in centrifuge with “fins” out, and spin at 1,200×g for 5 mins. After the first spin use a 1 mL pipet to resuspend each tube and repeat spin. This acts as an additional lysis step, is more vigorous and increases lysate yield. During second spin get liquid N2 and a fresh conical tube on ice. After spin is complete, transfer supernatant (lysate) from microcentrifuge tubes into the 50 mL conical tube and keep on ice. Repeat steps 10-14 for all other cell pellets until completed. Once all cell lysate has been transferred to the 50 mL conical tube pipet to mix so the solution is homogenous. Transfer 1 mL of lysate into batch-labeled microcentrifuge tubes and flash freeze in liquid nitrogen. Be sure to pipet up and down to mix throughout transfer step. Place all tubes in the […] for long-term storage.
(§5) In vitro transcription-translation assay setup: Each assay includes a master mix containing lysate and shared components, a 96-well plate containing compound titrations for testing, a 96-well DNA plate with reporter constructs to be tested, 96-well skirted PCR plates, and 96-well flat-bottom, black, fluorescent assay plates. […]

For a further assay, the system named is MYC. Description: In vitro transcription-translation (IVTT) assay, MYC reporter. Particulars: IVTT assay, HeLa S3 lysate, MYC reporter, normalized sfGFP/mCherry ratio; half-log dilutions 30 μM-0.1 μM, 2 hrs at 30° C.
From the text: as §1, §2, §3, §4, §5

For another assay, the system named is CCND1. Put plainly: In vitro transcription-translation (IVTT) assay, CCND1 reporter. The note with it: IVTT, HeLa S3 lysate, 2 hrs at 30° C.
From the text: as §1, §2, §3, §4, §5

The next assay relates to CCNTB1. Description: In vitro transcription-translation (IVTT) assay, CCNTB1 reporter. Particulars: HeLa S3 lysate, 2 hrs at 30° C. The procedure:
as §4
In vitro transcription-translation assay setup: Each assay includes a master mix containing lysate and shared components, a 96-well plate containing compound titrations for testing, a 96-well DNA plate with reporter constructs to be tested, 96-well skirted PCR plates, and 96-well flat-bottom, black, fluorescent assay plates. Reaction materials setup: (A) Master mix—15 mL conical tube (3 mL of HeLa S3 Lysate described above; 0.6 mL of ThermoFisher Accessory Proteins (#88882); 1.2 ml of ThermoFisher Reaction Mix (#88882); 0.54 mL of nuclease-free Water); (B) 96-Well Master Mix+Compound Plate (Half-log dilutions (30 μM−0.1 μM) of 4 compounds of interest are prepared in 100% DMSO); 96-Well DNA Plate (Five DNA constructs are plated into single columns within the plate. Row 1 of the column contains nuclease free H2O, all other wells contain 110 ng/μL plasmid DNA). Reactions are started by mixing 155 μL of master mix and 3.5 μL of compound serial dilutions, then 9.1 μL of master mix+compound mixture is aliquoted across 5 96-well plates. Reactions begin with final addition of 2 μL of DNA for a 11.1 μL reaction volume in each well. The entire plate is sealed, and incubated for 2 hrs at 30° C. After 2 hrs, quench the assay using 45 μL of PBS, and transfer 50 μL to a flat-bottom black microplate Quantify the sfGFP and mCherry signals from each well on each plate, taking 3 reads of each plate, and perform data analysis below.
In vitro transcription-translation assay data analysis: Each plate is read three times in channels for both sfGFP and mCherry signals. The average signal across these 3 reads is then calculated for further analysis. Control wells containing no DNA reporter are subtracted from reporter wells in the same column to remove auto-fluorescence of the lysate. Then, the ratio of sfGFP/mCherry is calculated per well, and these ratios are averaged across the triplicate experiments on the same plate. Finally, the ratio of each titration concentration is normalized to the no drug control to create the normalized stalling metric. […]

What is called IC50 is the concentration that inhibits the measured activity by half. Turning to `COc1ccc(C[C@H]2NC[C@H](O)[C@H]2OC(=O)NCc2ccc(N)nn2)cc1` [V188311, (2R,3S,4S)-4-hydroxy-2-[(4-methoxyphenyl)methyl]pyrrolidin-3-yl N-[(6-aminopyridazine-3-yl)methyl]carbamate], the IC50 in the assay on MCL-1, in the assay on MYC, with CCND1 and in the assay on CCNTB1 was under 10 µM throughout.

Consider `COc1ccc(C[C@H]2NC[C@H](O)[C@H]2OC(=O)NCc2ccc(Cn3cccn3)cc2)cc1` [V188314, (2R,3S,4S)-4-hydroxy-2-[(4-methoxyphenyl)methyl]pyrrolidin-3-yl N-{[4-(pyrazol-1-ylmethyl)phenyl]methyl}carbamate], for which the IC50 in the assay with MCL-1, in the assay with MYC, with CCND1 and with CCNTB1 was under 10 µM in each case.

Regarding `COc1ccc(C[C@H]2NC[C@H](O)[C@H]2OC(=O)NCC#Cc2ccccc2)cc1` [V188315, (2R,3S,4S)-4-hydroxy-2-[(4-methoxyphenyl)methyl]pyrrolidin-3-yl N-(3-phenylprop-2-yn-1-yl)carbamate], the IC50 was under 10 µM with MCL-1, 10 to 20 µM in the assay on MYC, 20 to 30 µM in the assay with CCND1 and under 10 µM with CCNTB1.

As for `COc1ccc(C[C@H]2NC[C@H](O)[C@H]2OC(=O)NCc2ccc(N)nc2)cc1` [V188316, (2R,3S,4S)-4-hydroxy-2-[(4-methoxyphenyl)methyl]pyrrolidin-3-yl N-[(6-aminopyridin-3-yl)methyl]carbamate], the IC50 in the assay with MCL-1, with MYC, in the assay with CCND1 and in the assay with CCNTB1 was under 10 µM throughout.

Turning to `COc1ccc(C[C@H]2NC[C@H](O)[C@H]2OC(=O)NCC2CCC2)cc1` [V188318, (2R,3S,4S)-4-hydroxy-2-[(4-methoxyphenyl)methyl]pyrrolidin-3-yl N-(cyclobutylmethyl)carbamate], the IC50 in the assay with MCL-1, in the assay on MYC, in the assay with CCND1 and in the assay with CCNTB1 was under 10 µM each time.

For the compound `COc1ccc(C[C@H]2NC[C@H](O)[C@H]2OC(=O)NCc2ccc(C3CC3)cc2)cc1` [V188321, (2R,3S,4S)-4-hydroxy-2-[(4-methoxyphenyl)methyl]pyrrolidin-3-yl N-[(4-cyclopropylphenyl)methyl]carbamate], the IC50 was 10 to 20 µM with MCL-1, over 30 µM in the assay with MYC, over 30 µM with CCND1 and 10 to 20 µM with CCNTB1.

As for `COc1ccc(C[C@H]2NC[C@H](O)[C@H]2OC(=O)NCc2ccc(CN)cc2)cc1` [V188322, (2R,3S,4S)-4-hydroxy-2-[(4-methoxyphenyl)methyl]pyrrolidin-3-yl N-{[4-(aminomethyl)phenyl]methyl}carbamate], the IC50 with MCL-1, in the assay with MYC, in the assay on CCND1 and in the assay with CCNTB1 was under 10 µM each time.

With `COc1ccc(C[C@H]2NC[C@H](O)[C@H]2OC(=O)NCC23CC(N)(C2)C3)cc1` [V188323, (2R,3S,4S)-4-hydroxy-2-[(4-methoxyphenyl)methyl]pyrrolidin-3-yl N-({3-aminobicyclo[1.1.1]pentan-1-yl}methyl)carbamate], the IC50 was 20 to 30 µM in the assay with MCL-1, 10 to 20 µM in the assay with MYC, 20 to 30 µM with CCND1 and under 10 µM with CCNTB1.

In the case of `COc1ccc(C[C@H]2NC[C@H](O)[C@H]2OC(=O)NCC23CC(C2)C3)cc1` [V188324, (2R,3S,4S)-4-hydroxy-2-[(4-methoxyphenyl)methyl]pyrrolidin-3-yl N-{bicyclo[1.1.1]pentan-1-ylmethyl}carbamate], the IC50 was 10 to 20 µM in the assay with MCL-1, 10 to 20 µM in the assay on MYC, 10 to 20 µM in the assay with CCND1 and under 10 µM in the assay with CCNTB1.

As for `O=C(NCC1CC1)O[C@@H]1[C@@H](O)CN[C@@H]1Cc1ccc(-c2c[nH]nn2)cc1` [V188327, (2R,3S,4S)-4-hydroxy-2-{[4-(1H−1,2,3-triazol-4-yl)phenyl]methyl}pyrrolidin-3-yl N-(cyclopropylmethyl)carbamate], the IC50 in the assay with MCL-1, with MYC, in the assay on CCND1 and with CCNTB1 was under 10 µM in each case.

As to `O=C(NCc1ccccc1)O[C@@H]1[C@@H](O)CN[C@@H]1Cc1ccc(C2CC2)cc1` [V188329, (2R,3S,4S)-2-[(4-cyclopropylphenyl)methyl]-4-hydroxypyrrolidin-3-yl N-benzylcarbamate], the IC50 in the assay with MCL-1, in the assay with MYC, in the assay with CCND1 and in the assay on CCNTB1 was under 10 µM in each case.

On to `O=C(NCc1ccccc1)O[C@@H]1[C@@H](O)CN[C@@H]1Cc1ccc(-c2c[nH]nn2)cc1` [V188331, (2R,3S,4S)-4-hydroxy-2-{[4-(1H−1,2,3-triazol-4-yl)phenyl]methyl}pyrrolidin-3-yl N-benzylcarbamate], for which the IC50 with MCL-1, with MYC, in the assay on CCND1 and with CCNTB1 was under 10 µM in each case.

As to `COc1ccc(C[C@H]2NC[C@H](O)[C@H]2OC(=O)NCCC[C@H]2CCNC2)cc1` [V188340, (2R,3S,4S)-4-hydroxy-2-[(4-methoxyphenyl)methyl]pyrrolidin-3-yl N-{3-[(3S)-pyrrolidin-3-yl]propyl}carbamate], the IC50 was under 10 µM in the assay with MCL-1, under 10 µM in the assay with MYC, 10 to 20 µM with CCND1 and under 10 µM in the assay on CCNTB1.

On to `COc1ccc(C[C@H]2NC[C@H](O)[C@H]2OC(=O)NCC[C@@H]2CCCN2)cc1` [V188341, (2R,3S,4S)-4-hydroxy-2-[(4-methoxyphenyl)methyl]pyrrolidin-3-yl N-{2-[(2S)-pyrrolidin-2-yl]ethyl}carbamate], for which the IC50 in the assay with MCL-1, with MYC, in the assay on CCND1 and in the assay with CCNTB1 was under 10 µM throughout.

With `COc1ccc(C[C@H]2NC[C@H](O)[C@H]2OC(=O)NCC[C@H]2CCCN2)cc1` [V188342, (2R,3S,4S)-4-hydroxy-2-[(4-methoxyphenyl)methyl]pyrrolidin-3-yl N-{2-[(2R)-pyrrolidin-2-yl]ethyl}carbamate], the IC50 in the assay on MCL-1 is 10 to 20 µM; in the assay with MYC, under 10 µM; with CCND1 it was 20 to 30 µM; in the assay with CCNTB1, under 10 µM.
